According to PubChem BioAssay (NCI):
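Values below derive from 48-hour exposures of cells grown in 96-well plates, with endpoints linearly interpolated between the two concentrations bracketing the appropriate inhibition level. GI50 marks 50% less growth. The concentration for full growth arrest is given as TGI.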

Tests used:
Assay in all cases: NCI tumour cell line growth inhibition, 48 h
OVCAR-8 ovarian = system: OVCAR-8 ovarian
ACHN renal = system: ACHN renal
SF-268 CNS = system: SF-268 CNS
M14 melanoma = system: M14 melanoma
OVCAR-3 ovarian = system: OVCAR-3 ovarian
KM12 colon = system: KM12 colon
EKVX NSCLC = system: EKVX NSCLC
SR leukemia = system: SR leukemia
MOLT-4 leukemia = system: MOLT-4 leukemia
UACC-62 melanoma = system: UACC-62 melanoma

Structure (SMILES) | TGI (OVCAR-8 ovarian) [µM] | TGI (ACHN renal) [µM] | TGI (SF-268 CNS) [µM] | TGI (M14 melanoma) [µM] | TGI (OVCAR-3 ovarian) [µM] | TGI (KM12 colon) [µM] | TGI (EKVX NSCLC) [µM] | GI50 (OVCAR-8 ovarian) [µM] | GI50 (ACHN renal) [µM] | GI50 (SF-268 CNS) [µM] | GI50 (M14 melanoma) [µM] | GI50 (SR leukemia) [µM] | TGI (SR leukemia) [µM] | GI50 (OVCAR-3 ovarian) [µM] | GI50 (KM12 colon) [µM] | GI50 (MOLT-4 leukemia) [µM] | TGI (MOLT-4 leukemia) [µM] | GI50 (UACC-62 melanoma) [µM] | TGI (UACC-62 melanoma) [µM] | GI50 (EKVX NSCLC) [µM]
CCCC(C)C[C@@H](C)CC(C)/C=C(\C)c1oc(=O)c(C)c(O)c1C (some centres not stated) (tested in a mixture with another compound) | 39.7 | 17.9 | 33.5 | 29.1 | 18.9 | 41.4 | 31.9 |  |  |  |  |  |  |  |  |  |  |  |  | 
COc1ccc(-c2ccc(/C=N/n3c(COc4ccc(Cl)cc4Cl)nn(CN4CCN(C)CC4)c3=S)o2)c([N+](=O)[O-])c1 | 53.5 | 55.7 | > 100 | 53.9 | 25 | 36.5 |  | 18.9 | 21.9 | 24.8 | 19.8 | 31.1 | 96.1 | 7.51 | 15.1 |  |  |  |  | 
C=CCN(CC=C)C(=O)c1cc(C)nc2c1c(=O)n(-c1ccccc1)c(=O)n2CC(O)CN1CCN(c2ncccn2)CC1 (configuration not stated) |  | > 100 | > 100 | > 100 | > 100 | > 100 | > 100 |  | > 100 | 17.2 | > 100 | > 100 | > 100 | > 100 | > 100 | > 100 | > 100 | > 100 | > 100 | > 100
O=C([O][Hg][CH2]C1COCC([CH2][Hg][O]C(=O)c2ccccc2)O1)c1ccccc1 (configuration not stated) | 4.62 | 3.71 | 30.7 | 19.9 | 2.93 | 31.5 | 37.4 | 2.03 | 1.91 | 16.6 | 6.01 |  |  | 1.58 | 16.6 | 2.96 | 12.5 | 16.4 | 32.4 | 19.6
O=c1[nH]c2c3ccccc3ccc2c2cc3c(cc12)OCO3 | > 100 | > 100 | > 100 | > 100 | > 100 | > 100 | > 100 |  |  |  |  |  |  |  |  |  | > 100 |  | > 100 | 
NC1CCCCC1N.O=S(=O)([O-])CCCN1CCOCC1.O=S(=O)([O-])CCCN1CCOCC1.[Pt+4] | > 100 | > 100 | > 100 | > 100 | > 100 | > 100 | > 100 | 10.6 | 8.17 | 9.92 | 14.4 |  |  | 19.3 | 35.1 | 2.33 | 14.1 | 11.8 | > 83.1 | > 100
Cc1cc(-c2nnc(N)nc2-c2ccc(F)cc2)cc(Cl)n1 | > 100 | > 100 | > 100 | > 100 | > 100 | > 100 | > 100 | > 100 | 73.3 | > 100 | > 100 | 64 | > 100 | > 100 | > 100 | 49.9 | > 100 |  |  | 59.9
